{"source": "patent US5683725A", "about": "“Modulation of substance P by compounds containing calcium sulfate and methods relating thereto” (BioFrontiers, Inc., priority 1995, dated 1997)", "key": {"[1]": {"system": "substance P-induced contractions of guinea pig ileum", "experiment": "Antagonism of substance P: inhibition of substance P-induced contractions of isolated guinea pig ileum", "conditions": "for Antagonist Activity (% Inhibition): 100 μM, substance P-induced contractions of isolated guinea pig ileum, 37° C., with atropine, diphenhydramine, indomethacin; for Modulation of substance P (in words): conclusion from Table 1", "from_the_text": "The ability of the calcium sulfate compounds of this invention to modulate substance P may be assayed by known techniques, such as those disclosed by Mizrahi et al. (Eur. J. Pharmacol. 91:139-140, 1983) and Holzer et al. (P. Eur. J. Pharmacol. 91:83-88, 1983). For example, PanLabs Test Numbers 3-0580 screen the ability of compounds to function as substance P antagonists by determining the ability of the compound to inhibit substance P-induced contractions of guinea pig ileum (see Example 6 herein below).\nThis example illustrates the ability of representative calcium sulfate compounds of this invention to modulate substance P by functioning as substance P antagonists. Activity was measured by the procedures disclosed by Mizrahi et al. (Eur. J. Pharmacol. 91:139-140, 1983) and Holzer et al., (Eur. J. Pharmacol. 91:83-88, 1983). Specifically, isolated guinea pig ileum, bathed in physiological salt solution containing atropine (4.5 μM), diphenhydramaine (3.4 μM), and indomethacin (2.8 μM) at 37° C. was used. The ability of a test compounds to inhibit substance P-induced contractions of the illeum indicates antagonist activity."}, "[2]": {"experiment": "Single oral dose toxicity in Sprague Dawley rats, 14 day observation", "assay_type": "in vivo, rat (Sprague Dawley)", "conditions": "single oral dose 5 g/kg", "procedure": "This example illustrates the non-toxic nature of a representative calcium sulfate compound of this invention (i.e., syngenite).\nTo determine the potential toxicity and/or toxic effects of syngenite when administered as a single oral dose in rats, 5 male and 5 female Sprague Dawley rats (200-300 grams) were administered syngenite at a dose level of 5 g/kg body weight by syringe and suitable intubation tubes.\nThe body weight of each rat was recorded (in grams) just prior to administration of syngenite (Day 0), and weekly thereafter for two weeks (i.e., Day 7 and Day 14)."}, "neurogenic inflammation": {"system": "neurogenic inflammation", "conditions": "pretreatment of the oral mucosa; cited from earlier work"}, "cluster headaches": {"system": "cluster headaches", "conditions": "intranasal, humans; cited from earlier work"}, "stomach injury": {"system": "stomach injury", "conditions": "cited from earlier work"}, "febrile response": {"system": "febrile response", "conditions": "microinjected into the preoptic area of conscious guinea pigs; cited from earlier work"}, "nasal protein output": {"system": "nasal protein output", "conditions": "exogenously applied, allergic rhinitis patients; cited from earlier work"}}, "note": "Several values for one entry are separate records, joined by “and”; a condition that tells them apart may be missing. Equal values may be shown once. No end group written: not given here."}
{"compound": "O.O=S(=O)([O-])[O-].O=S(=O)([O-])[O-].O=S(=O)([O-])[O-].O=S(=O)([O-])[O-].O=S(=O)([O-])[O-].O=S(=O)([O-])[O-].[Ca+2].[Ca+2].[Ca+2].[Ca+2].[Ca+2].[K+].[K+]", "note": "[Gorgeyite]", "values": [{"measurement": "Antagonist Activity (% Inhibition)", "setting": "[1]", "value": 16, "unit": "%"}, {"measurement": "Modulation of substance P (in words)", "setting": "[1]", "value": "effective modulating agents of substance P"}]}
{"compound": "O.O.O=S(=O)([O-])[O-].[Ca+2]", "note": "[Gypsum, calcium sulfate dihydrate]", "values": [{"measurement": "Antagonist Activity (% Inhibition)", "setting": "[1]", "value": 39, "unit": "%"}, {"measurement": "Modulation of substance P (in words)", "setting": "[1]", "value": "effective modulating agents of substance P"}]}
{"compound": "O.O=S(=O)(O)O.O=S(=O)(O)O.[Ca].[K].[K]", "note": "[Syngenite]", "values": [{"measurement": "Antagonist Activity (% Inhibition)", "setting": "[1]", "value": 40, "unit": "%"}, {"measurement": "Modulation of substance P (in words)", "setting": "[1]", "value": "effective modulating agents of substance P"}, {"measurement": "Body weight, Day 7", "setting": "[2]; female rats", "value": "255 grams and 266 grams and 251 grams and 269 grams and 279 grams"}, {"measurement": "Body weight, Day 14", "setting": "[2]; female rats", "value": "256 grams and 273 grams and 287 grams and 299 grams"}, {"measurement": "Body weight, Day 7", "setting": "[2]; male rats", "value": "350 grams and 333 grams and 329 grams and 336 grams and 337 grams"}, {"measurement": "Body weight, Day 14", "setting": "[2]; male rats", "value": "395 grams and 374 grams and 375 grams and 368 grams and 386 grams"}, {"measurement": "Gross abnormalities at necropsy", "setting": "[2]", "value": "No gross abnormalities in any of the animals were observed"}, {"measurement": "Survival / mortality", "setting": "[2]; 5 male and 5 female rats, 14 days", "value": "All ten test animals survived the 14 day observation period"}, {"measurement": "Appearance of animals", "setting": "[2]; 14 days", "value": "all animals appeared normal"}, {"measurement": "Clinical observations", "setting": "[2]; 14 days", "value": "No clinical observations were noted"}, {"measurement": "Toxicity (overall)", "setting": "[2]; rats", "value": "non-toxic"}]}
{"compound": "COc1cc(CNC(=O)CCCC/C=C/C(C)C)ccc1O", "note": "[capsaicin]", "values": [{"measurement": "Neurogenic inflammation upon local administration of substance P", "setting": "neurogenic inflammation", "value": "prevents neurogenic inflammation"}, {"measurement": "Severity of cluster headaches", "setting": "cluster headaches", "value": "decrease the severity of cluster headaches"}, {"measurement": "Area of stomach injury", "setting": "stomach injury; intragastric, prior to challenge with 30% ETOH", "value": "reduced the area of stomach injury"}]}
{"compound": "substance P: undecapeptide, member of the tachykinin family of mammalian regulatory peptides (RPKPQQFFGLM; ends and bridges not checked; UniProt P20366 58-68, looked up)", "values": [{"measurement": "Temperature", "setting": "febrile response", "value": "caused an increase in temperature"}, {"measurement": "Areas of injury (stomach)", "setting": "stomach injury; given IV", "value": "increased the areas of injury"}, {"measurement": "Nasal protein output", "setting": "nasal protein output", "value": "causes an increase in nasal protein output"}]}
